Data published in patent US9827208B2, “Antioxidant dietary supplement compositions and methods for maintaining healthy skin” (priority 2004, dated 2017).

Tests used:
[1] = tested on: skin conditions arising from acne and rosacea; experiment: Effect of oral antioxidant/lycopene compositions on skin conditions (acne, rosacea symptoms); format: in vivo, human; settings: oral administration, methods of treatment of the invention
[2] = cited from earlier work
[3] = Digestive tolerance of ingested high quantities of antioxidants; format: in vivo; settings: oral
[4] = Stability of gallic acid as additive in juice and food products; format: physicochemical; settings: acidity about pH 5 or lower

Structure (SMILES): CCCOC(=O)c1cc(O)c(O)c(O)c1 [propyl gallate]
- effectiveness in improving skin conditions / suppressing skin ailments [1]: not effective

Structure (SMILES): CC(C)=CCC/C(C)=C/C=C/C(C)=C/C=C/C(C)=C/C=C/C=C(C)/C=C/C=C(C)/C=C/C=C(\C)CCC=C(C)C [lycopene]
- bioavailability of lycopene on heating and processing tomatoes into tomato paste ([2]; heating and processing into tomato paste): increases bioavailability
- adsorption by humans of lycopene from dietary sources ([2]; humans, dietary sources): ≥ 2,5%
- bioavailability of lycopene in presence of oil ([2]; presence of oil): increases bioavailability
- effectiveness in improving skin conditions / suppressing skin ailments [1]: less effective

Structure (SMILES): O=C1O[C@H]([C@@H](O)CO)C(O)=C1O [ascorbic acid]
- digestive system problems on ingestion of relatively high quantities [3]: can result in digestive system problems

Structure (SMILES): COC(=O)c1cc(O)c(O)c(O)c1 [methyl gallate]
- effectiveness in improving skin conditions / suppressing skin ailments [1]: not effective

Structure (SMILES): O=C(O)c1cc(O)c(O)c(O)c1 [gallic acid, trihydroxy benzoic acid]
- stability of gallic acid in un-oxidized form in juice/food product [4]: stable
- digestive system problems on ingestion of relatively high quantities [3]: can result in digestive system problems
